Experimental data taken from publication PMC11157491, “Novel Alaninamide Derivatives with Drug-like Potential for Development as Antiseizure and Antinociceptive Therapies—In Vitro and In Vivo Characterization” (ACS Chemical Neuroscience, 2024).

Key:
mice [1] = assay: Timed ivPTZ seizure threshold test; type: in vivo; details: 50 mg/kg i.p.
From the text: The timed intravenous (iv) PTZ-induced seizure test was used to characterize the acute effect of compounds 26 and 28 on the thresholds for myoclonic, clonic, and tonic seizure in mice (Figure 2). It is noteworthy that the ivPTZ seizure test is a very sensitive method for determining the compounds’ effects on seizure threshold in rodents.[35] […] In the ivPTZ seizure test, bilateral forelimb tonic extension is usually quickly followed by hindlimb tonic extension and death due to respiratory arrest. […] In mice with no forelimb tonus, PTZ infusion was stopped after 180 s and the threshold dose of PTZ (in mg/kg) was calculated in those mice taking 180 s as infusion duration.
Figure 2 Acute effects of compounds 26 (A) and 28 (B) on seizure thresholds in the timed ivPTZ seizure test in mice. Both compounds were administered i.p. at a dose of 50 mg/kg, 30 min before the test. Control animals received vehicle. Data are presented as means (mg/kg PTZ) ± SEM (n = 9–13 animals). The statistical significance was evaluated by a Student’s t-test: *p < 0.05, **p < 0.01, ***p < 0.001, and ****p < 0.0001, as compared to the vehicle-treated group (GraphPad Prism 8).
In studies assessing the acute effect of compounds 26 and 28 on the ivPTZ seizure threshold and neuromuscular strength, the compounds were suspended in a 1% solution of Tween 80 and administered i.p., at a dose of 50 mg/kg of body weight, 30 min before the tests. The experimental procedures of the timed ivPTZ test and the grip strength test were described in detail elsewhere.[64]
Data from the ivPTZ test and the grip strength test were analyzed using Student’s t-test.

mice [2] = assay: Subcutaneous pentylenetetrazole (scPTZ) seizure test; type: in vivo; details: 100 mg/kg i.p.; for scPTZ: number of mice protected/number of mice tested: 0.5 h
From the text: (§1) These parameters were then used to calculate the protective indexes (PIs, PI = TD50/ED50), which describe the therapeutics window of potential drug candidates. The ED50, TD50, and PI values for the tested compounds together with data of their chemical prototypes KA-11 and KJ-5 and reference ASMs are summarized in Table 2.
(§2) In the initial screening studies, four mice per group were randomly assigned to each experimental group (each mouse was used only once). To evaluate the ED50 or TD50 values, four groups consisting of eight animals were injected with various doses of tested compounds. The protective indexes (PIs) for the compounds investigated and reference ASMs were calculated by dividing the TD50 value, as determined in the chimney test, by the respective ED50 value, as determined in the MES, scPTZ, or 6 Hz (32 or 44 mA) tests (PI = TD50/ED50). The PIs are a measure of the potential therapeutic window of the tested agent.
(§3) All substances were suspended in Tween 80 (1% aqueous solution) and administered i.p. as a single injection at a dose of 10 mL/kg. On each day of experimentation, fresh solutions were prepared. The detailed in vivo procedures are described elsewhere: the maximal electroshock seizure test (MES),[60] the subcutaneous pentylenetetrazole seizure test (scPTZ),[61] the 6 Hz psychomotor seizure model (32 and 44 mA),[62] and the chimney test.[63] The reference ASMs were purchased from commercial suppliers: VPA (Sigma-Aldrich, St. Louis, MO), LCS, and LEV (UCB Pharma, Braine l’Alleud, Belgium).

[3] = PAMPA passive permeability; type: in vitro ADME; details: precoated PAMPA Plate System; for Papp: read-out: PAMPA—Pe ± SD
From the text: The precoated parallel artificial membrane permeability assay (PAMPA) was used to determine the passive mechanism of permeability.

[4] = test system: human serum albumin (HSA) and α1-acid glycoprotein (AGP)
Description: The plasma protein binding: human serum albumin (HSA) and α1-acid glycoprotein (AGP) was evaluated by the commercial TRANSIL^XL PPB assay.

mice [5] = assay: Maximal electroshock (MES) seizure test; type: in vivo; details: for responders at 100 mg/kg / ED50: Mus musculus, ip; for responders at 100 mg/kg: read-out: MES: number of mice protected/number of mice tested (converted); for ED50: mice, pretreatment 0.5 h
From the text: Identification and profiling of new ASM candidate compounds are still largely based on predictive animal models of seizures/epilepsy, while a range of in silico and in vitro approaches (i.e., molecular modeling or high throughput screening, etc.) are increasingly used in the early stages of ASM discovery.[31] The Epilepsy Therapy Screening Program (ETSP) of the National Institute of Neurological Disorders and Stroke (NIH, Bethesda, MD) has enabled the discovery of several approved ASMs by focusing on the in vivo testing of compounds synthesized by both academic laboratories and industry.[32] The ETSP provides a broad panel of seizure tests (ca. 30 rodent models), but a subset of them is used for the initial screening of new compounds with potential antiseizure activity. The routinely used seizure models include: (i) the MES test, which is an experimental model of tonic–clonic seizures, (ii) the 6 Hz model (32 mA) of focal seizures, and (iii) the scPTZ model of generalized absence or myoclonic seizures.[33],[34] Consequently, in the current studies, all final compounds 21–36 and 45–48 were initially studied in the MES and the 6 Hz (32 mA) seizure models after intraperitoneal (i.p.) administration at a screening dose of 100 mg/kg in mice at a time point of 0.5 h (the screening group consisted of four mice, and the results obtained are summarized in Table S1).
as §1
The adult male Albino Swiss mice weighed between 22 and 26 g were used in the in vivo studies. They were housed under standardized housing conditions in colony cages and had free access to food as well as tap water. The animals were left to adapt under laboratory conditions for 7 days. All procedures involving animals and their care were performed in accordance with the current European Community and Polish legislation on animal experimentation.
as §2, §3

mice [6] = assay: 6 Hz (44 mA) model of pharmacoresistant seizures; type: in vivo; details: Mus musculus, ip, pretreatment 0.5 h
Description: Based on the promising pharmacological data for 26 and 28, and especially potent protection in the 6 Hz (32 mA) seizure model, both compounds were tested subsequently in the 6 Hz seizure model, applying a higher current intensity of 44 mA (Table 3). Importantly, this test is recognized as one of the key animal models of pharmacoresistant seizures, utilized in the early stage of new ASMs’ development.
as §2
All substances were suspended in Tween 80 (1% aqueous solution) and administered i.p. as a single injection at a dose of 10 mL/kg. On each day of experimentation, fresh solutions were prepared. […]

With `CC(=O)NC(C)C(=O)N1CCN(c2cccc(C(F)(F)F)c2)CC1` (stereo not shown) [Compound 26, N-(1-oxo-1-(4-(3-(Trifluoromethyl)phenyl)piperazin-1-yl)propan-2-yl)acetamide] the “mice in which hindlimb tonus (only) was diminished/inhibited” value (mice [1]; 12 mice) was 10 out of 12, the “seizure threshold for generalized clonic seizure with loss of righting reflex” value (mice [1]; 30 min before ivPTZ) was “significantly raised” and the “seizure threshold for the first myoclonic twitch” value (mice [1]; 30 min before ivPTZ) was “significantly raised”. The “threshold for forelimb tonus” value (mice [1]; 30 min before ivPTZ) was “did not significantly affect”, the “protection in scPTZ screening” value (mice [2]) was 25% and the “scPTZ: number of mice protected/number of mice tested” value (mice [2]) was 1/4. For the same compound, the “PAMPA—Pe ± SD” value [3] was 4.51 10^–6 cm/s, the Papp [3] was 4.51 ± 0.61 ×10⁻⁶ cm/s and the “plasma protein binding—KD” value [4] was 1670.0 µM. For the same compound, the “antiseizure protection in MES screening” value (mice [5]; 100 mg/kg i.p., 0.5 h, four mice) was 100%, the responders at 100 mg/kg (mice [5]; 100 mg/kg i.p., 0.5 h) was 100% and the ED50 (mice [5]) was 64.3 mg/kg. For the same compound, the ED50 (mice [6]) was 29.9 mg/kg.

For `CC(=O)NC(C)C(=O)N1CCN(c2cccc(OC(F)(F)F)c2)CC1` (stereo not shown) [Compound 28, N-(1-oxo-1-(4-(3-(Trifluoromethoxy)phenyl)piperazin-1-yl)propan-2-yl)acetamide], the “mice in which both fore- and hindlimb tonus were completely inhibited” value (mice [1]; 12 mice) was 9 out of 12, the “mice in which hindlimb tonus (only) was diminished/inhibited” value (mice [1]; 12 mice) was 3 mice and the “seizure threshold for generalized clonic seizure with loss of righting reflex” value (mice [1]; 30 min before ivPTZ) was “significantly raised”. The “seizure threshold for the first myoclonic twitch” value (mice [1]; 30 min before ivPTZ) was “significantly raised”, the “protection in scPTZ screening” value (mice [2]) was 25% and the “scPTZ: number of mice protected/number of mice tested” value (mice [2]) was 1/4. The “PAMPA—Pe ± SD” value [3] was 5.95 10^–6 cm/s, the Papp [3] was 5.95 ± 0.51 ×10⁻⁶ cm/s and the “plasma protein binding—KD” value [4] was 1260.0 µM. For the same compound, the responders at 100 mg/kg (mice [5]; 100 mg/kg i.p., 0.5 h) was 100%, the ED50 (mice [5]) was 34.9 mg/kg and the ED50 (mice [6]) was 29.5 mg/kg.
